Key:
[1] = target: T1, α-synuclein (αS) sonicated fibrils (Homo sapiens, UniProt P37840, N122C); test: dcFCCS binding of labelled peptide to αS sonicated fibrils
T1 construct: made in house; host or cells: Escherichia coli BL21 (DE3), pET21a
Method: (§1) This variant was expressed and purified as described above but including 5 mM DTT in all purification steps. The protein was labeled with maleimide-modified Alexa Fluor 488 (AF488) (Invitrogen, Carlsbad, USA) for 15–20 h at 4 °C in the dark. After quenching the reaction with 10 mM DTT, free unreacted dye in the protein solution was subsequently separated using a P10 desalting column (GE Healthcare, Waukesha, USA), and the labeled protein solution was flash frozen with liquid nitrogen and stored at −80 °C. […] The same labeling and purification strategy were followed as for αS, although in this case the unreacted free dye was removed from the protein solution using a polyacrylamide desalting column (Thermo Fisher Scientific, Waltham, USA).
(§2) For the isolation of type B* oligomers purified αS was dialyzed against Milli-Q water and lyophilized for 48 h in aliquots of 6 mg. The aliquots were resuspended in 500 μL of PBS pH 7.4 to a final concentration of ca. 800 μM, filtered through 0.22 μm filters and incubated at 37 °C without agitation for 20–24 h.

[2] = target: T2, α-synuclein (αS) type A* oligomers (Homo sapiens, UniProt P37840, N122C); test: dcFCCS binding of labelled peptide to αS type A* oligomers
T2 construct: made in house; host or cells: Escherichia coli BL21 (DE3), pET21a

[3] = target: T3, α-synuclein (αS) type B* oligomers (Homo sapiens, UniProt P37840, N122C); test: dcFCCS binding of labelled peptide to αS type B* oligomers
T3 construct: made in house; host or cells: Escherichia coli BL21 (DE3), pET21a
Method: as §1, §2

[4] = test system: α-synuclein (αS) amyloid aggregation; test: αS amyloid aggregation kinetics by thioflavin-T fluorescence; format: biochemical; details: 70 μM αS with 35, 14, 7 (3.5) μM peptide, PBS, 37 °C
Method: αS amyloid aggregation was monitored in a 96 wells plate (non-treated) (Sarstedt, Germany) containing Teflon polyballs (1/8′′ diameter) (Polysciences Europe GmbH, Eppelheim, Germany) as described by Pujols and coworkers. Each well contained 150 μL solutions of 70 μM αS in PBS buffer with 40 μM thioflavin-T and the corresponding concentration of peptide. Plates were incubated at 37 °C, 100 rpm in an orbital culture shaker Max-Q 4000 (Thermo Fisher Scientific, Waltham, USA). Aggregation was analyzed every 2 h using a Victor3.0 Multilabel Reader Software-PerkinElmer 2030. (PerkinElmer, Waltham, USA). End-point measurements were performed after 32 h of incubation. Fluorescence intensity was measured in triplicate by exciting with a 430–450 nm filter and collecting the emission with a 480–510 nm filter. The resulting kinetics were normalized to the maximum fluorescence of the αS control (untreated).

[5] = target: α-synuclein type B* oligomers (AF488-labelled αS N122C) (UniProt P37840); test: dual-color fluorescence cross-correlation spectroscopy (dcFCCS)
[6] = target: α-synuclein type A* oligomers (AF488-labelled αS N122C) (UniProt P37840); test: as above
[7] = target: α-synuclein sonicated amyloid fibrils (AF488-labelled αS N122C) (UniProt P37840); test: as above
[8] = target: α-synuclein N122C labelled with Alexa Fluor 488, monomer (UniProt P37840); test: FCS molecular brightness; sonicated fibril sample; brightness of the aggregates compared with that of the αS monomer; average number of αS molecules per aggregate

CC[C@H](C)[C@H](NC(=O)[C@H](CCCCN)NC(=O)[C@H](CCC(=O)O)NC(=O)[C@H](CCCCN)NC(=O)[C@H](CO)NC(=O)[C@H](CCCCN)NC(=O)[C@H](CCCNC(=N)N)NC(=O)[C@H](Cc1ccccc1)NC(=O)[C@H](Cc1ccccc1)NC(=O)[C@H](CC(=O)O)NC(=O)CNC(=O)[C@H](CC(C)C)NC(=O)[C@@H](N)CC(C)C)C(=O)NCC(=O)N[C@@H](CCCCN)C(=O)N[C@@H](CCC(=O)O)C(=O)N[C@@H](Cc1ccccc1)C(=O)N[C@@H](CCCCN)C(=O)N[C@@H](CCCNC(=N)N)C(=O)N[C@H](C(=O)N[C@H](C(=O)N[C@@H](CCC(N)=O)C(=O)N[C@@H](CCCNC(=N)N)C(=O)N[C@H](C(=O)N[C@@H](CCCCN)C(=O)N[C@@H](CC(=O)O)C(=O)N[C@@H](Cc1ccccc1)C(=O)N[C@@H](CC(C)C)C(=O)N[C@@H](CCCNC(=N)N)C(=O)N[C@@H](CC(N)=O)C(=O)N[C@@H](CC(C)C)C(=O)N[C@H](C(=O)N1CCC[C@H]1C(=O)N[C@@H](CCCNC(=N)N)C(=O)N[C@H](C(=O)N[C@@H](CCC(=O)O)C(=O)N[C@@H](CO)C(=O)O)[C@@H](C)O)C(C)C)[C@@H](C)CC)C(C)C)[C@@H](C)CC [LL-37]
Kd [1]: 5.14 nM | Kd [2]: 1.92 nM | Kd [3]: 3.62 nM

LELLAKLLKLLKDLLGKLL [All_Leu19, variant of All-Leu devoid of the last three C-terminal residues]
anti-aggregation (inhibitory) activity, Th-T titration [4]: retained the inhibitory activity

LELLEELLKLLEDLLKKLL [Anionic_scaffold]
anti-aggregation (inhibitory) activity, Th-T titration [4]: does not inhibit

LELLEKLLKLLKDLLKKLL [Scaffold_19, only Leu, Asp, Glu and Lys]
anti-aggregation (inhibitory) activity, Th-T titration [4]: same anti-aggregation activity than the parental variant

LL-37 with a single engineered N-terminal cysteine labelled with Atto647N (peptide)
stoichiometry N (binding sites per aggregate) [5]: 64 | stoichiometry N (binding sites per aggregate) [6]: 3 | stoichiometry N (binding sites per aggregate) [7]: 181

α-synuclein N122C labelled with Alexa Fluor 488, monomer (from UniProt P37840 1-140) (natural protein)
stoichiometry N (αS molecules per aggregate) [8]: 107

— PMC8213730, “α-Helical peptidic scaffolds to target α-synuclein toxic species with nanomolar affinity” (Nature Communications, 2021)
